Experimental findings from US20150299250A1, “MACROCYCLIC COMPOUNDS AND USES THEREOF” (ADELAIDE RESEARCH & INNOVATION PTY LTD, priority 2012, published 2015) are described below.

Series [1] deals with WE-68 Ewing's sarcoma cells. The series is described as follows: Cell viability assay (7AAD, 48 hours), WE-68. Format: cell-based. Particulars: 48 hours exposure; read-out: Cancer cell lines IC50 (μM) WE-68. As to the method:
(§1) Cell viability assays were performed as previously described. Briefly, cells were seeded in 96 well microtiterplates at a density of 3×10^4 cells per well in the presence of the indicated chemical. Cells were harvested 48 hours post-treatment, centrifuged at 1,300×g, washed in phosphate-buffered saline (PBS) and stained with 7AAD solution (2 μg/mL) (7-amino-actinomycin-D, Invitrogen, Carlsbad, Calif.) for 10 mins at room temperature. Viable cells were determined with the use of a FACS Calibur flow cytometer (Becton Dickinson Immunocytometry Systems), and analyzed with the use of FLOWJO (Tree Star, Inc) and GraphPad Prism (GraphPad Software Inc).
(§2) WE-68 and VH-64 Ewing's sarcoma cells were kindly supplied by F. van Valen (Department of Orthopaedic Surgery, Westfalische-Wilhelms-University, Germany).TC-252 and STA-ET-1 Ewing's sarcoma cells were kindly provided by G. Hamilton (Department of Surgery, University of Vienna, Austria) or P. Ambros (Children's Cancer Research Institute, St Anna Children's Hospital, Vienna, Austria). Primary human embryonic fibroblasts or primary human osteoblasts were collected from the Women's and Children's Hospital (North Adelaide, South Australia, Australia) or Royal Adelaide Hospital with patient consent. Mouse Embryonic Fibroblasts (MEFs) and its p53-null derivative were kindly supplied by Guillermina Lozano (Department of Genetics, Anderson Cancer Centre, University of Texas, Houston, Tex., USA). WE-68 cell lines were grown in RPMI-1640 media, whilst human embryonic fibroblasts and MEFs were grown in Dulbecco's Modified Eagle's Medium (DMEM). Media was supplemented with 10% FCS, 1% PSG and 10 mM HEPES. All cells were maintained at 37° C. in a humidified atmosphere of 5% CO2.

The test system of series [2] is STA-ET-1 Ewing's sarcoma cells. The series is described as follows: Cell viability assay (7AAD, 48 hours), STA-ET-1. Format: cell-based. As to conditions: 48 hours exposure; read-out: Cancer cell lines IC50 (μM) STA-ET-1. The protocol: as §1, §2
Series [3] deals with TC-252 Ewing's sarcoma cells. The series is described as follows: Cell viability assay (7AAD, 48 hours), TC-252. Format: cell-based. Particulars: 48 hours exposure; read-out: Cancer cell lines IC50 (μM) TC-252. As to the method:
as §1, §2

Series [4] relates to primary human embryonic fibroblasts. The series is described as follows: Cell viability assay (7AAD, 48 hours), normal fibroblasts. As to conditions: Fibroblast, 48 hours exposure, read-out: Normal cell lines IC50 (μM) Fibroblasts. Format: cell-based. The protocol:
as §1, §2

The test system of series [5] is primary human osteoblasts. The series is described as follows: Cell viability assay (7AAD, 48 hours), normal osteoblasts. The format is cell-based. Particulars: Osteoblast, 48 hours exposure, read-out: Normal cell lines IC50 (μM) Osteoblasts. The protocol:
as §1, §2

The subject of series [6] is MEF p53+/+ (mouse embryonic fibroblasts). The series is described as follows: Cell viability assay, MEF p53+/+. The format is cell-based.
From the text: (§3) Although proteasome inhibitors have been translated from the bench to the clinic over the past decade, their specific mechanisms of action remain poorly understood. As discussed earlier, proteasomal over-activity in tumor cells has been attributed to aberrant degradation of numerous critical cancer-related pro proteins, including the pro-apoptotic tumor suppressor, p53. However, the role of p53 as a downstream mediator of cell death in response to proteasomal inhibition remains unclear. Therefore, we used our small library of CT-L specific proteasome inhibitors (compounds 1-6) to determine the role of p53 in their mechanism of cytotoxic action. For this purpose, we utilized mouse embryonic fibroblasts (MEFs) from transgenic p53^+/+ and p53^−/− littermates. This isogenic pair of cell lines are either competent (MEF p53^+/+) or deficient (MEF p53^−/−) in p53 protein and are used here to assess a potential role for p53 as a downstream inducer of cell death in response to proteasomal inhibition.
as §1, §2

Series [7] has as its system MEF p53-/- (mouse embryonic fibroblasts lacking p53). The series is described as follows: Cell viability assay, MEF p53-/-. The format is cell-based. As to conditions: for sensitivity of MEFs lacking p53 (p53-/-) to cytotoxic effects (in words): compared with p53+/+ MEFs.
From the text: as §3, §1
WE-68 and VH-64 Ewing's sarcoma cells were kindly supplied by F. van Valen (Department of Orthopaedic Surgery, Westfalische-Wilhelms-University, Germany).TC-252 and STA-ET-1 Ewing's sarcoma cells were kindly provided by G. Hamilton (Department of Surgery, University of Vienna, Austria) or P. Ambros (Children's Cancer Research Institute, St Anna Children's Hospital, Vienna, Austria). […]

In another series the test system is p53 protein. The series is described as follows: Western blot analysis of p53 protein expression in MEF p53+/+. The format is cell-based, mouse. Particulars: MEFs p53+/+, 16 hours treatment. As to the method: Dose-response curves are provided in Supplementary Figure S3. Compound 1 was not assayed using this system.
Western blot analyses were performed as previously described. Briefly, cells were harvested and lysed in 50 mM Tris-HCl (pH 7.5), 250 mM NaCl, 1 mM EDTA, 50 mM NaF, 0.5% TritonX-10, 0.5 mM Na3VO4 and 1× […] inhibitor (Roche, Indianapolis, Ind., USA). Lysates were incubated on ice for 8 minutes and sonicated using a Vibra-Cell VCX130 (Sonics & Materials, Inc) at 25% amplitude for 10 seconds. Protein concentrations were assayed with the bicinchoninic acid assay (Thermo Scientific, Massachusetts, USA) and subsequently resolved using a 10% SDS-PAGE gel. Proteins were transferred onto a nitrocellulose membrane (Hybond-C Extra, Amersham Biosciences), blocked (10% milk/TBST; 30 mins), hybridized with the appropriate primary or HRP-conjugated secondary antibody and subsequently visualized using Enhanced Chemiluminescence (Amersham Biosciences).
Antibodies used included a mouse anti-β-actin (Sigma), anti-p53 (1C12-mouse specific) (Cell Signalling, Danvers, Mass., USA), sheep anti-mouse IgG-HRP (Amersham Biosciences, Piscataway, N.J., USA), or donkey anti-rabbit IgG-HRP (Amersham Biosciences).
For orientation: Immunoblotting shows a protein as a band on a membrane.

Where [8] appears, read: Mus musculus, Fibroblast; read-out: IC50 in MEF p53+/+.

Read-outs that look alike come from different tables or passages of the source. Where a SMILES comes first, the peptide text is derived from it. The star is where a group is joined. Cbz = O=C(OCc1ccccc1)*

As to `C#CCOc1ccc(C[C@@H](C=O)NC(=O)[C@H](CC(C)C)NC(=O)[C@H](CCN=[N+]=[N-])NC(=O)OCc2ccccc2)cc1` [Compound 2], the IC50 in series [1] was 4.7 µM; in series [2] it was 5.4 µM; in series [3], 2.3 µM; in series [4] it was 29.4 µM; in series [5] it was 13.6 µM; in series [6] (setting [8]), 2700 to 10300 nM.

For the molecule `C#CCOc1ccc(C[C@@H](C=O)NC(=O)[C@H](CC(C)C)NC(=O)[C@H](CCCN=[N+]=[N-])NC(=O)OCc2ccccc2)cc1` [Compound 3], the IC50 in series [1] is 0.47 µM; in series [2] it was 2.6 µM; in series [3], 1.2 µM; in series [4] it was 8.8 µM; in series [5] it was 18.8 µM; in series [6] (setting [8]) it was 2700 to 10300 nM.

`C#CCOc1ccc(C[C@@H](C=O)NC(=O)[C@H](CC(C)C)NC(=O)[C@H](CCCCN=[N+]=[N-])NC(=O)OCc2ccccc2)cc1` [Compound 4]: the IC50 in series [1] is 10.8 µM; in series [2], 2.6 µM; in series [3], 1.6 µM; in series [4] it was 39.5 µM; in series [5], 10.4 µM; in series [6] (setting [8]), 2700 to 10300 nM.

As for `C#CCOc1ccc(C[C@@H](C=O)NC(=O)[C@@H](NC(=O)[C@H](CCCCN=[N+]=[N-])NC(=O)OCc2ccccc2)[C@@H](C)CC)cc1` [Compound 5], the IC50 in series [1] is 0.98 µM; in series [2], 1 µM; in series [3], 0.42 µM; in series [4], 19.9 µM; in series [5] it was 4.8 µM; in series [6] (setting [8]) it was 2700 to 10300 nM. Further, the “sensitivity of MEFs lacking p53 (p53-/-) to cytotoxic effects (in words)” value in series [7] is “resistant”.

With `C#CCOc1ccc(C[C@@H](C=O)NC(=O)[C@H](CC(C)C)NC(=O)[C@H](Cc2ccc(N=[N+]=[N-])cc2)NC(=O)OCc2ccccc2)cc1` [Compound 6], the IC50 in series [1] is 1.1 µM; in series [2] it was 2.4 µM; in series [3], 0.64 µM; in series [4] it was 45.4 µM; in series [5], 11.6 µM; in series [6] (setting [8]), 2700 to 10300 nM. In addition, the “sensitivity of MEFs lacking p53 (p53-/-) to cytotoxic effects (in words)” value in series [7] is “resistant”.

On to `CC(C)C[C@@H](C=O)NC(=O)[C@H](CC(C)C)NC(=O)[C@H](CC(C)C)NC(=O)OCc1ccccc1` [MG132, reference compound] (Cbz-Leu-Leu-Leu-aldehyde), for which the IC50 stood at 0.68 µM in series [1]; 0.59 µM in series [2]; 0.49 µM in series [3]; 2.8 µM in series [4]; 2.7 µM in series [5]; 410 nM in series [6] (Mus musculus, Fibroblast, read-out: IC50 in MEF p53+/+). The IC50 in series [7] (Mus musculus, Fibroblast, read-out: IC50 in MEF p53-/-) is 940 nM. In addition, the “MEF p53+/+ more sensitive compared to MEF p53-/-” value in series [6] is recorded as “over 2 fold”. Moreover, in the series with p53 protein, the p53 protein levels result is “increase p53 protein levels”.
